From PubChem BioAssay AID270 (DTP/NCI, 2004)
Several values for one entry are separate records, joined by “and”; a condition that tells them apart may be missing. Equal values may be shown once. Results filed as inconclusive are left out.

Tested on: BDF1 mice, s.c. Lewis lung carcinoma, T/C %
Experiment: NCI In Vivo Anticancer Drug Screen. Data for tumor model Lewis Lung Carcinoma (subcutaneous) in B6D2F1 (BDF1) mice
In short: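 Tumor-bearing mice were treated with test compound, and either survival or tumor size was recorded. Values are the treated-group measurement divided by that of the vehicle-treated control group.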

Question: Which T/C (endpoint: mean tumor weight, dose: 15.0 mg/kg/injection, schedule: Q01DX011 (sc), vehicle: steriod suspending solution, higher = larger tumour) does the source give for `C[C@H]1C[C@H]2[C@@H]3CC[C@](O)(C(=O)CO)[C@@]3(C)C[C@H](O)[C@]2(F)[C@@]2(C)C=CC(=O)C=C12` here?
Answer: Its T/C is 44 % of control.

Question: And the T/C (endpoint: mean tumor weight, dose: 30.0 mg/kg/injection, schedule: Q01DX011 (sc), vehicle: steriod suspending solution, higher = larger tumour)?
Answer: The T/C was 43 % of control.

Question: What about the T/C (endpoint: mean tumor weight, dose: 90.0 mg/kg/injection, schedule: Q01DX011 (sc), vehicle: steriod suspending solution, higher = larger tumour) of the same compound?
Answer: The T/C was 12 % of control.

Question: How did the T/C (endpoint: mean tumor weight, dose: 12.5 mg/kg/injection, schedule: Q01DX011 (ip), vehicle: carboxymethylcellulose (CMC), higher = larger tumour) turn out when `NC(=S)N/N=C/c1nccc2ccccc12` was run?
Answer: The T/C was 103 % of control.

Question: What about the T/C (endpoint: mean tumor weight, dose: 25.0 mg/kg/injection, schedule: Q01DX011 (ip), vehicle: carboxymethylcellulose (CMC), higher = larger tumour) of the same compound?
Answer: Its T/C is 48 % of control.

Question: What about the T/C (endpoint: mean tumor weight, dose: 26.0 mg/kg/injection, schedule: Q01DX011 (ip), vehicle: saline, higher = larger tumour) of the same compound?
Answer: Its T/C is 64 % of control.

Question: What about the T/C (endpoint: mean tumor weight, dose: 33.5 mg/kg/injection, schedule: Q01DX011 (ip), vehicle: carboxymethylcellulose (CMC), higher = larger tumour) of the same compound?
Answer: The T/C was 56 % of control.

Question: What about the T/C (endpoint: mean tumor weight, dose: 38.0 mg/kg/injection, schedule: Q01DX011 (ip), vehicle: saline, higher = larger tumour) of the same compound?
Answer: The T/C was 16 % of control.

Question: What about the T/C (endpoint: mean tumor weight, dose: 40.0 mg/kg/injection, schedule: Q01DX011 (oral), vehicle: saline, higher = larger tumour) of the same compound?
Answer: Its T/C is 42 % of control.

Question: And the T/C (endpoint: mean tumor weight, dose: 56.0 mg/kg/injection, schedule: Q01DX011 (ip), vehicle: saline, higher = larger tumour)?
Answer: The T/C was 3 % of control.

Question: What about the T/C (endpoint: median survival time, dose: 9.4 mg/kg/injection, schedule: Q01DX009 (ip), vehicle: saline with Tween-80, higher = longer survival) of the same compound?
Answer: Its T/C is 124 % of control.

Question: And the T/C (endpoint: median survival time, dose: 18.8 mg/kg/injection, schedule: Q01DX009 (ip), vehicle: saline with Tween-80, higher = longer survival)?
Answer: Its T/C is 98 % of control and 108 % of control.

Question: What about the T/C (endpoint: median survival time, dose: 37.5 mg/kg/injection, schedule: Q01DX009 (ip), vehicle: saline with Tween-80, higher = longer survival) of the same compound?
Answer: Its T/C is 98 % of control.

Question: Which T/C (endpoint: mean tumor weight, dose: 60.0 mg/kg/injection, schedule: Q01DX011 (ip), vehicle: carboxymethylcellulose (CMC), higher = larger tumour) does the source give for `O=C(O)c1ccc(-c2ccccc2)cc1` here?
Answer: The T/C was 61 % of control.

Question: And the T/C (endpoint: mean tumor weight, dose: 90.0 mg/kg/injection, schedule: Q01DX011 (ip), vehicle: carboxymethylcellulose (CMC), higher = larger tumour)?
Answer: Its T/C is 80 % of control.

Question: And the T/C (endpoint: mean tumor weight, dose: 135.0 mg/kg/injection, schedule: Q01DX011 (ip), vehicle: carboxymethylcellulose (CMC), higher = larger tumour)?
Answer: Its T/C is 65 % of control.

Question: What about the T/C (endpoint: mean tumor weight, dose: 200.0 mg/kg/injection, schedule: Q01DX011 (ip), vehicle: carboxymethylcellulose (CMC), higher = larger tumour) of the same compound?
Answer: The T/C was 33 % of control and 42 % of control.

Question: `CC1(C)[C@@H]2CC[C@]1(C)[C@H](O)C2` was tested. Which T/C (endpoint: mean tumor weight, dose: 50.0 mg/kg/injection, schedule: Q01DX011 (ip), vehicle: saline, higher = larger tumour) did it give?
Answer: Its T/C is 100 % of control.

Question: What about the T/C (endpoint: mean tumor weight, dose: 100.0 mg/kg/injection, schedule: Q01DX011 (ip), vehicle: saline, higher = larger tumour) of the same compound?
Answer: Its T/C is 95 % of control.

Question: What about the T/C (endpoint: mean tumor weight, dose: 200.0 mg/kg/injection, schedule: Q01DX011 (ip), vehicle: saline, higher = larger tumour) of the same compound?
Answer: The T/C was 79 % of control.

Question: And the T/C (endpoint: mean tumor weight, dose: 400.0 mg/kg/injection, schedule: Q01DX011 (ip), vehicle: saline, higher = larger tumour)?
Answer: The T/C was 100 % of control.

Question: Which T/C (endpoint: median survival time, dose: 50.0 mg/kg/injection, schedule: Q04DX002 (ip), vehicle: saline with Tween-80, higher = longer survival) does the source give for `CCCCC[C@H](O)/C=C/[C@H]1[C@H](O)CC(=O)[C@@H]1C/C=C\CCCC(=O)O` here?
Answer: The T/C was 95 % of control.

Question: Which results are given for `O=C(NP(=O)(N1CC1)N1CC1)c1cc(I)ccc1I`?
Answer: T/C (endpoint: median survival time, dose: 1.0 mg/kg/injection, schedule: Q02DX009 (ip), vehicle: saline with Tween-80, higher = longer survival): 110 % of control; T/C (endpoint: median survival time, dose: 2.0 mg/kg/injection, schedule: Q02DX009 (ip), vehicle: saline with Tween-80, higher = longer survival): 112 % of control; T/C (endpoint: median survival time, dose: 4.0 mg/kg/injection, schedule: Q02DX009 (ip), vehicle: saline with Tween-80, higher = longer survival): 117 % of control; T/C (endpoint: median survival time, dose: 8.0 mg/kg/injection, schedule: Q02DX009 (ip), vehicle: saline with Tween-80, higher = longer survival): 117 % of control; T/C (endpoint: median survival time, dose: 16.0 mg/kg/injection, schedule: Q02DX009 (ip), vehicle: saline with Tween-80, higher = longer survival): 106 % of control; T/C (endpoint: median survival time, dose: 32.0 mg/kg/injection, schedule: Q02DX009 (ip), vehicle: saline with Tween-80, higher = longer survival): 102 % of control; T/C (endpoint: median survival time, dose: 64.0 mg/kg/injection, schedule: Q02DX009 (ip), vehicle: saline with Tween-80, higher = longer survival): 98 % of control

Question: For `CC1(C)N=C(N)N=C(N)N1c1cccc(CC(=O)Nc2ccc(S(=O)(=O)F)cc2)c1`, which T/C (endpoint: median survival time, dose: 25.0 mg/kg/injection, schedule: Q01DX009 (ip), vehicle: Klucel (hydroxypropylcellulose) (HPC), higher = longer survival) is on record?
Answer: Its T/C is 100 % of control.

Question: And the T/C (endpoint: median survival time, dose: 50.0 mg/kg/injection, schedule: Q01DX009 (ip), vehicle: Klucel (hydroxypropylcellulose) (HPC), higher = longer survival)?
Answer: The T/C was 95 % of control.

Question: What about the T/C (endpoint: median survival time, dose: 100.0 mg/kg/injection, schedule: Q01DX009 (ip), vehicle: Klucel (hydroxypropylcellulose) (HPC), higher = longer survival) of the same compound?
Answer: Its T/C is 98 % of control.

Question: And the T/C (endpoint: median survival time, dose: 150.0 mg/kg/injection, schedule: Q01DX009 (ip), vehicle: Klucel (hydroxypropylcellulose) (HPC), higher = longer survival)?
Answer: Its T/C is 94 % of control.

Question: Which results are given for `COc1ccc(-c2cc(=O)c3c(O)c(OC)c(OC)c(OC)c3o2)cc1`?
Answer: T/C (endpoint: mean tumor weight, dose: 12.5 mg/kg/injection, schedule: Q01DX011 (ip), vehicle: saline, higher = larger tumour): 95 % of control; T/C (endpoint: mean tumor weight, dose: 25.0 mg/kg/injection, schedule: Q01DX011 (ip), vehicle: saline, higher = larger tumour): 100 % of control; T/C (endpoint: mean tumor weight, dose: 50.0 mg/kg/injection, schedule: Q01DX011 (sc), vehicle: steriod suspending solution, higher = larger tumour): 63 % of control; T/C (endpoint: mean tumor weight, dose: 100.0 mg/kg/injection, schedule: Q01DX011 (sc), vehicle: steriod suspending solution, higher = larger tumour): 90 % of control
